{
  "source": "patent US8809358B2",
  "about": "“Use of IκB-kinase inhibitors in pain therapy” (Sanofi-Aventis Deutschland GmbH, priority 2002, dated 2014)",
  "assay_type_in_all_cases": "in vivo",
  "key": {"[1]": {"system": "Zymosan-induced paw inflammation", "assay": "Zymosan-induced paw inflammation in the rat: paw withdrawal threshold during mechanical stimulation (von Frey test)", "settings": "for Change in the paw withdrawal threshold (%): 30 mg/kg i.p. 15 min before, 2.5 and 5.5 h after Zymosan", "procedure": "(§1) • Zymosan-induced paw inflammation in the rat; • Parameter: paw withdrawal time or paw withdrawal threshold during thermal or mechanical stimulation of the hind paw. 2nd Model: • Kaolin/carrageenan-induced knee joint inflammation in the rat; • Parameter: reaction of spinal neurons during pressure stimulation of the knee. Model 1\n(§2) Experimental implementation: in short-term anesthesia using isoflurane, 1 mg of Zymosan (as a suspension in 100 μl of PBS (phosphate-buffered salt solution)) was injected subcutaneously into the middle of the plantar side of one of the experimental animal's hind paws. After that, two different behavioral tests were used to quantitatively determine the development of a hyperalgesia.\nb) Determining the Paw Withdrawal Threshold During Mechanical Stimulation (von Frey Test)\nThe experimental animal was placed in a transparent plastic chamber whose floor consisted of wire-gauze. Punctuate pressure of defined strength was produced using calibrated nylon fibers, what are termed von Frey hairs. The weakest pressure stimulation during which the animal withdrew its paw determines the mechanical pain threshold.\n(§3) About half an hour before, and at various times after, the Zymosan injection, the thermal and mechanical pain thresholds were determined on the right hind paw and on the left hind paw (see Tables 1, 2). The decrease in the ipsilateral pain threshold, expressed in % of the contralateral pain threshold, was then calculated (see Tables 1, 2). The degree of hyperalgesia is directly proportional to the magnitude of this decrease.\n(§4) In a control group, the Zymosan injection induced pronounced mechanical and thermal hyperalgesia (see control data in Tabs. 1 and 2)."}, "[2]": {"system": "Zymosan-induced paw inflammation", "assay": "Zymosan-induced paw inflammation in the mouse: paw withdrawal time during thermal stimulation of the hind paw", "settings": "for Statistical difference as compared with the vehicle: thermal hyperalgesia AUC", "procedure": "• Zymosan-induced paw inflammation in the mouse; • Parameter: paw withdrawal time during thermal stimulation of the hind paw. Experimental implementation: In short-term anesthesia using isoflurane, 25 μl of a suspension containing 50 mg of zymosan/ml were injected into the right hind paw of the experimental animal. The development of a hyperalgesia was then determined quantitatively as follows: Determining the Paw Withdrawal Time During Thermal Stimulation (Hargreave's Test; See Above). The experimental animal was placed in a transparent plastic chamber having a glass floor. As soon as the experimental animal was no longer moving, following the reconnaissance phase (about 5 min), an infrared light source was positioned directly below the hind paw to be stimulated and switched on. The lamp emitted focused infrared light of increasing intensity such that the skin temperature of the hind paw increased almost linearly. As soon as the animal withdrew the paw, the lamp switched itself off. The temperature of the paw at the time it is withdrawn has just become unpleasant for the animal; this is referred to as the thermal pain threshold. Shortly before the zymosan injection, and for from 7 to 14 days after the injection, the thermal pain threshold was determined once daily on the right hind paw and left hind paw. Subsequently, the integral of the area which was formed from the curves for the paw withdrawal times of the inflamed paw and the noninflamed paw (AUC, area between the curves, see tables 5 and 6) was determined as a measure of the hyperalgesia. The larger this value is, the more pronounced is the hyperalgesia, and the smaller the value is in animals which are being given the substance, the greater is the success of the therapy. […] A very high dose of paracetamol was likewise administered twice daily to another group of animals which was taken through the experiment in parallel. […] The scheme for zymosan injection and dosing was identical to that in the previously described study. The only difference was that this additional study ran for 14 days."}, "[3]": {"system": "Kaolin/carrageenan-induced knee joint inflammation", "assay": "Kaolin/carrageenan-induced knee joint inflammation in the rat: reaction of spinal neurons during pressure stimulation of the knee", "source_text": "as §1\nExperimental implementation: In rats which were under sodium thiopental anesthesia, the spinal canal was opened and spinal medullary neurons which processed the “pain impulses” from the knee-joint were identified. Following identification, a long-term recording, in which the activity of the nerve cell was recorded before and during the development of an acute inflammation in the knee-joint, was carried out. For this, the responses to non-noxious and noxious stimulation at the knee-joint were measured in a control period before inducing the inflammation and for several hours after inducing the inflammation.\nThe acute inflammation was induced by the intraarticular injection of a suspension (about 150 μl) of kaolin and carrageenan. In controlled experiments, only the vehicle was applied to the spinal medullary surface in order to represent the development of the hyperexcitability under control conditions. As a rule, this development of hyperexcitability took place within 2 to 4 hours and was expressed in a marked increase in the responses to non-noxious and noxious stimulation of the knee-joint (Tab. 3). […] The responses of the cell to non-noxious and noxious stimulation were then subsequently monitored as in the control experiments."}, "[4]": {"system": "Zymosan-induced paw inflammation", "assay": "Zymosan-induced paw inflammation in the rat: paw withdrawal time during thermal stimulation (Hargreaves test)", "settings": "for Change in the paw withdrawal time (%): 30 mg/kg i.p. 15 min before, 2.5 and 5.5 h after Zymosan", "procedure": "as §1, §2\na) Determining the Paw Withdrawal Time During Thermal Stimulation (Hargreaves Test).\nThe experimental animal was placed in a transparent plastic chamber having a glass floor. As soon as the experimental animal was no longer moving, following the reconnaissance phase (about 5 min), an infrared light source was positioned directly below the hind paw to be stimulated and switched on. The lamp emitted focused infrared light of increasing intensity, such that the skin temperature of the hind paw increased almost linearly. As soon as the animal withdrew the paw, the lamp switched itself off. The temperature of the paw at the time it is withdrawn has just become unpleasant for the animal; this is referred to as the thermal pain threshold.\nas §3, §4"}},
  "data": [
    {"smiles": "CNc1nccc(-c2cc3cc(C(=O)N[C@@H](CN(c4ccccc4)c4ccccc4)c4n[nH]c(=O)o4)ccc3[nH]2)n1", "note": "[Compound 13, N—[(S)-2-diphenylamino-1-(5-oxo-4,5-dihydro[1,3,4]oxadiazol-2-yl)ethyl]-2-(2-methylaminopyrimidin-4-yl)-1H-indole-5-carboxamide]", "values": [
      {"measurement": "onset of the effect on mechanical hyperalgesia after Zymosan injection", "setting": "[1]; 30 mg/kg i.p.", "value": 1, "unit": "h"},
      {"measurement": "Change in the paw withdrawal threshold (%)", "setting": "[1]; 2 h after Zymosan injection", "value": "−36.0", "unit": "%"},
      {"measurement": "Change in the paw withdrawal threshold (%)", "setting": "[1]; 24 h after Zymosan injection", "value": "−9.7", "unit": "%"},
      {"measurement": "Change in the paw withdrawal threshold (%)", "setting": "[1]; Baseline −0.5 h", "value": 0.0, "unit": "%"},
      {"measurement": "mechanical hyperalgesia", "setting": "[1]; 30 mg/kg i.p. three times", "value": "significantly reduced"},
      {"measurement": "persistence of the effect on mechanical hyperalgesia after the last administration", "setting": "[1]; 30 mg/kg i.p. three times", "value": "≥ 18", "unit": "h"},
      {"measurement": "activity in the test model", "setting": "[1]; mechanical hyperalgesia", "value": "very strong"},
      {"measurement": "activity in the test model", "setting": "[2]; mouse, 7-day study", "value": "very strong activity"},
      {"measurement": "reduction of thermal hyperalgesia compared with paracetamol", "setting": "[2]; mouse, 7-day study", "value": "to a greater extent"},
      {"measurement": "AUC (thermal hyperalgesia), dose dependence", "setting": "[2]; mouse, 7-day study, orally twice daily", "value": "decreased in a dose-dependent manner"},
      {"measurement": "thermal hyperalgesia, dose dependence", "setting": "[2]; mouse, 14-day study", "value": "reduce thermal hyperalgesia in a dose-dependent manner"},
      {"measurement": "effect on thermal hyperalgesia at the high dosage, compound 13 versus Celecoxib", "setting": "[2]; mouse, 14-day study, high dosage", "value": "equally strong effects"},
      {"measurement": "Statistical difference as compared with the vehicle", "setting": "[2]; 14 days, 25 mg/kg", "value": "yes"},
      {"measurement": "Statistical difference as compared with the vehicle", "setting": "[2]; seven days, 2.8 mg/kg orally twice daily", "value": "no"},
      {"measurement": "Statistical difference as compared with the vehicle", "setting": "[2]; seven days, 25 mg/kg orally twice daily", "value": "yes"},
      {"measurement": "Statistical difference as compared with the vehicle", "setting": "[2]; seven days, 75 mg/kg orally twice daily", "value": "yes"},
      {"measurement": "Neuronal responses before and during knee-joint inflammation (imp/15 s), mean value", "setting": "[3]; Non-noxious stimulation at the knee-joint, about 30 μl of 10 μM solution on spinal medulla, Baseline", "value": 0.92, "unit": "imp/15 s"},
      {"measurement": "Neuronal responses before and during knee-joint inflammation (imp/15 s), mean value", "setting": "[3]; Noxious stimulation at the knee-joint, about 30 μl of 10 μM solution on spinal medulla, 120-180 min after K/C injection", "value": 8.5, "unit": "imp/15 s"},
      {"measurement": "Neuronal responses before and during knee-joint inflammation (imp/15 s), mean value", "setting": "[3]; Noxious stimulation at the knee-joint, about 30 μl of 10 μM solution on spinal medulla, Baseline", "value": 0.8, "unit": "imp/15 s"},
      {"measurement": "development of spinal hyperexcitability compared with the controls", "setting": "[3]; rat, about 30 μl of 10 μM solution on spinal medulla", "value": "almost completely suppressed"},
      {"measurement": "effect on the responses to noxious knee-joint stimulation compared with indomethacin", "setting": "[3]; rat, comparison with published data from an earlier study", "value": "more strongly expressed"},
      {"measurement": "Change in the paw withdrawal time (%)", "setting": "[4]; 4 h after Zymosan injection", "value": "−16.0", "unit": "%"},
      {"measurement": "Change in the paw withdrawal time (%)", "setting": "[4]; 5 h after Zymosan injection", "value": "−9.7", "unit": "%"},
      {"measurement": "Change in the paw withdrawal time (%)", "setting": "[4]; 6 h after Zymosan injection", "value": 5.0, "unit": "%"},
      {"measurement": "Change in the paw withdrawal time (%)", "setting": "[4]; 7 h after Zymosan injection", "value": 3.4, "unit": "%"},
      {"measurement": "Change in the paw withdrawal time (%)", "setting": "[4]; 24 h after Zymosan injection", "value": "−3.8", "unit": "%"},
      {"measurement": "Change in the paw withdrawal time (%)", "setting": "[4]; Baseline −0.5 h", "value": 0.0, "unit": "%"},
      {"measurement": "persistence of the effect on thermal hyperalgesia after the last administration", "setting": "[4]; 30 mg/kg i.p. three times", "value": "≥ 18", "unit": "h"},
      {"measurement": "side difference in the paw withdrawal time", "setting": "[4]; 30 mg/kg i.p., after the third administration of the substance", "value": "no longer possible to observe any side difference at all"},
      {"measurement": "thermal hyperalgesia compared with the control group", "setting": "[4]; 30 mg/kg i.p., from two hours after Zymosan injection onward", "value": "less pronounced"},
      {"measurement": "reduction of thermal hyperalgesia compared with the NSAID diclofenac", "setting": "[4]; comparative data from a study carried out previously", "value": "considerably more powerfully"},
      {"measurement": "activity in the test model", "setting": "[4]; thermal hyperalgesia", "value": "very strong"}
    ]}
  ]
}
